What was measured:
Format in all cases: binding
[1] = target: T1, LOX2 (Arabidopsis thaliana, UniProt P38418); assay: SPR competition on 3AESA chip; competition of 4AzSA photo-crosslinking; conditions: 1-5 mM SA, HBS-EP pH 7.4 (SPR); competes with 3AESA and 4AzSA
T1 construct: N-terminal His6 (pET28a), from E. coli
T1 sequence (P38418 57-896): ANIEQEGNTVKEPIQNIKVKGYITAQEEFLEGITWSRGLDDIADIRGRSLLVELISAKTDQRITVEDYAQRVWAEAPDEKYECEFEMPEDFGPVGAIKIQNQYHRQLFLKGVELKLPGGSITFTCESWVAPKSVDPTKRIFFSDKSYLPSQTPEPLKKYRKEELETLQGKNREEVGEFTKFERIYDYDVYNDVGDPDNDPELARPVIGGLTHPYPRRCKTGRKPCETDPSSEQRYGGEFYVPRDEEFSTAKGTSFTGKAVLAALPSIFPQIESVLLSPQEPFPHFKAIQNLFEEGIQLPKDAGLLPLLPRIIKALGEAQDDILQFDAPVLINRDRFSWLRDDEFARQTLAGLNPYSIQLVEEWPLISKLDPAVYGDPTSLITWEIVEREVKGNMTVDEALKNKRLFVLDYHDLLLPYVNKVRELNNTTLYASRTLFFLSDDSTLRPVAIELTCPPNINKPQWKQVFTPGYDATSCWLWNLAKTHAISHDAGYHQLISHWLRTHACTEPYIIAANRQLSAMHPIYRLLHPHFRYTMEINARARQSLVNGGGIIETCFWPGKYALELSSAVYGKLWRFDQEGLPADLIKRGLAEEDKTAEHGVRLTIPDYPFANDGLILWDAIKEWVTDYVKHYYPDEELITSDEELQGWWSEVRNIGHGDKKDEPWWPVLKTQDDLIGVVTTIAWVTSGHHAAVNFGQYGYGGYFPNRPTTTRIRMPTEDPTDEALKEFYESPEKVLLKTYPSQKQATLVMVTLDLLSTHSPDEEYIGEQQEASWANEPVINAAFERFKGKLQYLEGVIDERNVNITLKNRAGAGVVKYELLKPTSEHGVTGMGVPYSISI

[2] = target: T2, RBCS1A (Arabidopsis thaliana, UniProt P10795); assay: as above; conditions: 1-5 mM SA, HBS-EP pH 7.4 (SPR); competes with 3AESA and 4AzSA
T2 construct: gene RBCS-1A; small subunit alone, N-terminal His6 (pET28a), from E. coli

[3] = target: T3, TPPII (Arabidopsis thaliana, UniProt F4JVN6); assay: as above; conditions: 1-5 mM SA, HBS-EP pH 7.4 (SPR); competes with 3AESA and 4AzSA
T3 construct: gene TPP2; N-terminal His6 (pET28a), from E. coli
T3 sequence (F4JVN6 1-1380): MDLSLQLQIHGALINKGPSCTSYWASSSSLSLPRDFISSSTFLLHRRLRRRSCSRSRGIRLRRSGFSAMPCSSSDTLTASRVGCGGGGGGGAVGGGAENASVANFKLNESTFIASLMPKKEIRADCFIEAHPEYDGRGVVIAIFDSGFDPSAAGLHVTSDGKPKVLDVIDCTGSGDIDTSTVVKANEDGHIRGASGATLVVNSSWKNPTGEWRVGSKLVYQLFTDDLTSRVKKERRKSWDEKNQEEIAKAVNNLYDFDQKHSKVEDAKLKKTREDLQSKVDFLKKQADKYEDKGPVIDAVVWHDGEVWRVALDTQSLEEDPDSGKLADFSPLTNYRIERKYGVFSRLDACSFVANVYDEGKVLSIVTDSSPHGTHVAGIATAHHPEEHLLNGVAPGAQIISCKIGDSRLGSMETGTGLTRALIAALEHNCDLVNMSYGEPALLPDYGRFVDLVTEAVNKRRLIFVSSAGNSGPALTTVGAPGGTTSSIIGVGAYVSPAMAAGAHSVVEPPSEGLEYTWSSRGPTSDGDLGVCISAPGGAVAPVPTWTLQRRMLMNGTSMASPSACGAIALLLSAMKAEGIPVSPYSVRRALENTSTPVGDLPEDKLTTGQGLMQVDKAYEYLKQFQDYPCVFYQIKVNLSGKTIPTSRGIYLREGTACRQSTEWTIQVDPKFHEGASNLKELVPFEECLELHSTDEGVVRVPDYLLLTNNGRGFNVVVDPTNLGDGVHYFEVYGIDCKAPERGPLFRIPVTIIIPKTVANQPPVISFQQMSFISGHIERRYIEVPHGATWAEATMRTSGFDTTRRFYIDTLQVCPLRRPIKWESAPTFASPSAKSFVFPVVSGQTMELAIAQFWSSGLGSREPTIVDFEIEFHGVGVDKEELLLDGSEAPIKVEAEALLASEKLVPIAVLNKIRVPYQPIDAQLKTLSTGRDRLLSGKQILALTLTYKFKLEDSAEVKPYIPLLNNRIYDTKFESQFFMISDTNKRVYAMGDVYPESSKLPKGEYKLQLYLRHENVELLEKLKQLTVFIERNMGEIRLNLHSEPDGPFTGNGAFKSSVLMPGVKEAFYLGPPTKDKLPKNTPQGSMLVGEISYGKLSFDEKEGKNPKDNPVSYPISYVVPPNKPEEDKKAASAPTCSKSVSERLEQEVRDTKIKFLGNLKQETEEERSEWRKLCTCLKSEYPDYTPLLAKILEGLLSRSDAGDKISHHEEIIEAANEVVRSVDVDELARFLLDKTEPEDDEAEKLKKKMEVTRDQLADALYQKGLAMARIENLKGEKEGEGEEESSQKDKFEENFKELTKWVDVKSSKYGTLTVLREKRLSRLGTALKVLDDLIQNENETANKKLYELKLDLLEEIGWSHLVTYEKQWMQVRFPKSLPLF

[4] = target: T4, HPR2 (Arabidopsis thaliana, UniProt Q9CA90); assay: as above; conditions: 1-5 mM SA, HBS-EP pH 7.4 (SPR); competes with 3AESA and 4AzSA
T4 construct: N-terminal His6 (pET28a), from E. coli
T4 sequence (Q9CA90 1-313): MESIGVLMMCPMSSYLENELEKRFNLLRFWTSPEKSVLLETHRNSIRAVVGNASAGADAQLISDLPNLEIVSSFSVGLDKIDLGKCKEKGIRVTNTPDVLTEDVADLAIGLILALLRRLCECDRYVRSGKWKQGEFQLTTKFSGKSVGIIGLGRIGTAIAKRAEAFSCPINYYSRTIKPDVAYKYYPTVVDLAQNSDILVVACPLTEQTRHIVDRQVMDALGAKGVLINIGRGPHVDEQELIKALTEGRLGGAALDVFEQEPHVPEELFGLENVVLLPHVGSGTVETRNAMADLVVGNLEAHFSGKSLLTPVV

[5] = target: T1, LOX2; assay: UV photo-crosslinking, anti-SA immunoblot; conditions: 50 uM 4AzSA, PBS, on ice, 254 nm UV; covalent; competed by SA
[6] = target: T5, TRX-m1 (Arabidopsis thaliana, UniProt O48737); assay: UV photo-crosslinking, anti-SA immunoblot; conditions: 50 uM 4AzSA, PBS, on ice, 254 nm UV; covalent; competed by SA
T5 construct: gene At1g03680; N-terminal His6 (pET28a), from E. coli
T5 sequence (O48737 49-179): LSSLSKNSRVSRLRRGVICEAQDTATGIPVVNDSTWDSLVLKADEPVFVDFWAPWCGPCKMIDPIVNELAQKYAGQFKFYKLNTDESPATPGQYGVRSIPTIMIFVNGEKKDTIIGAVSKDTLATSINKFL

Compound | SPR competition on 3AESA chip; competition of 4AzSA photo-crosslinking [1] | SPR competition on 3AESA chip; competition of 4AzSA photo-crosslinking [2] | SPR competition on 3AESA chip; competition of 4AzSA photo-crosslinking [3] | SPR competition on 3AESA chip; competition of 4AzSA photo-crosslinking [4] | UV photo-crosslinking, anti-SA immunoblot [5] | UV photo-crosslinking, anti-SA immunoblot [6]
O=C(O)c1ccccc1O [SA] | SA competes with 3AESA and 4AzSA for binding by TRX-m1, TPPII, SHM4, and LOX2 | bound 3AESA and crosslinked to 4AzSA in an SA-inhibitable manner, indicating that they are SABPs | SA competes with 3AESA and 4AzSA for binding by TRX-m1, TPPII, SHM4, and LOX2 | bound 3AESA and crosslinked to 4AzSA in an SA-inhibitable manner, indicating that they are SABPs | – | –
[N-]=[N+]=Nc1ccc(C(=O)O)c(O)c1 [4AzSA] | – | – | – | – | These five proteins also bound and crosslinked to 4AzSA | These five proteins also bound and crosslinked to 4AzSA

Source: article PMC4290489, “Identification of multiple salicylic acid-binding proteins using two high throughput screens” (Frontiers in Plant Science, 2015)
